pEC50: −log10 of the molar value. The source made the active and inactive calls. No cut-off for these calls is given here.
Experiments:
[1] = tested on: HeLa; test: Cell cycle arrest in human HeLa cells transfected with NFkappaB-Luc assessed as accumulation at diploid S phase at 20 uM after 8 hrs by using propidium iodide staining by FACS analysis; assay type: functional
[2] = tested on: HeLa; test: Effect on cell cycle arrest in TNF-alpha-stimulated human HeLa cells transfected with NFkappaB-Luc assessed as cell aggregate level at 10 uM after 8 hrs by using propidium iodide staining by FACS analysis; assay type: functional
[3] = tested on: HeLa; test: Cell cycle arrest in TNF-alpha-stimulated human HeLa cells transfected with NFkappaB-Luc assessed as accumulation at diploid stage at 0.05 uM after 8 hrs by using propidium iodide staining by FACS analysis; assay type: functional
[4] = tested on: HeLa; test: Cell cycle arrest in TNF-alpha-stimulated human HeLa cells transfected with NFkappaB-Luc assessed as accumulation at G2/G1 phase at 1 uM after 8 hrs by using propidium iodide staining by FACS analysis; assay type: functional
[5] = tested on: HeLa; test: Cell cycle arrest in TNF-alpha-stimulated human HeLa cells transfected with NFkappaB-Luc assessed as accumulation at diploid G1 phase at 10 uM after 8 hrs by using propidium iodide staining by FACS analysis; assay type: functional
[6] = Inhibition of NF-kappaB-mediated gene transcription expressed in TNF-alpha-stimulated human HeLa cells for 30 mins before TNFalpha challenge measured after 8 hrs by steady-glo luciferase reporter gene assay; assay type: cell-based
[7] = tested on: HeLa; test: Cell cycle arrest in TNF-alpha-stimulated human HeLa cells transfected with NFkappaB-Luc assessed as accumulation at total S phase at 0.1 uM after 8 hrs by using propidium iodide staining by FACS analysis; assay type: functional
[8] = tested on: HeLa; test: Effect on cell cycle arrest in TNF-alpha-stimulated human HeLa cells transfected with NFkappaB-Luc assessed as cell debris level at 5 uM after 8 hrs by using propidium iodide staining by FACS analysis; assay type: functional
[9] = tested on: HeLa; test: Cell cycle arrest in TNF-alpha-stimulated human HeLa cells transfected with NFkappaB-Luc assessed as accumulation at diploid S phase at 0.1 uM after 8 hrs by using propidium iodide staining by FACS analysis; assay type: functional
[10] = tested on: HeLa; test: Cell cycle arrest in TNF-alpha-stimulated human HeLa cells transfected with NFkappaB-Luc assessed as accumulation at diploid S phase at 5 uM after 8 hrs by using propidium iodide staining by FACS analysis; assay type: functional
[11] = tested on: HeLa; test: Cell cycle arrest in TNF-alpha-stimulated human HeLa cells transfected with NFkappaB-Luc assessed as accumulation at diploid G1 phase at 0.05 uM after 8 hrs by using propidium iodide staining by FACS analysis; assay type: functional
[12] = tested on: HeLa; test: Cell cycle arrest in TNF-alpha-stimulated human HeLa cells transfected with NFkappaB-Luc assessed as accumulation at total S phase at 1 uM after 8 hrs by using propidium iodide staining by FACS analysis; assay type: functional
[13] = Cytotoxicity against human whole blood lymphocytes assessed as survival cell count in millions at 10 uM after 24 hrs by trypan blue staining-based hemocytometry
[14] = tested on: HeLa; test: Effect on cell cycle arrest in TNF-alpha-stimulated human HeLa cells transfected with NFkappaB-Luc assessed as cell aggregate level at 20 uM after 8 hrs by using propidium iodide staining by FACS analysis; assay type: functional
[15] = tested on: HeLa; test: Cell cycle arrest in TNF-alpha-stimulated human HeLa cells transfected with NFkappaB-Luc assessed as accumulation at diploid G2 phase at 10 uM after 8 hrs by using propidium iodide staining by FACS analysis; assay type: functional
[16] = tested on: HeLa; test: Cell cycle arrest in human HeLa cells transfected with NFkappaB-Luc assessed as accumulation at diploid G1 phase at 20 uM after 8 hrs by using propidium iodide staining by FACS analysis; assay type: functional
[17] = tested on: HeLa; test: Cell cycle arrest in TNF-alpha-stimulated human HeLa cells transfected with NFkappaB-Luc assessed as accumulation at diploid G1 phase at 20 uM after 8 hrs by using propidium iodide staining by FACS analysis; assay type: functional
[18] = tested on: HeLa; test: Effect on cell cycle arrest in human HeLa cells transfected with NFkappaB-Luc assessed as cell debris level at 20 uM after 8 hrs by using propidium iodide staining by FACS analysis; assay type: functional
[19] = tested on: HeLa; test: Cell cycle arrest in TNF-alpha-stimulated human HeLa cells transfected with NFkappaB-Luc assessed as accumulation at diploid G2 phase at 1 uM after 8 hrs by using propidium iodide staining by FACS analysis; assay type: functional
[20] = tested on: HeLa; test: Cell cycle arrest in TNF-alpha-stimulated human HeLa cells transfected with NFkappaB-Luc assessed as accumulation at total S phase at 0.05 uM after 8 hrs by using propidium iodide staining by FACS analysis; assay type: functional
[21] = tested on: HeLa; test: Cell cycle arrest in TNF-alpha-stimulated human HeLa cells transfected with NFkappaB-Luc assessed as accumulation at G2/G1 phase at 20 uM after 8 hrs by using propidium iodide staining by FACS analysis; assay type: functional
[22] = tested on: HeLa; test: Stimulation of NF-kappaB-mediated gene transcription expressed in human HeLa cells for 30 mins before TNFalpha challenge measured after 8 hrs by steady-glo luciferase reporter gene assay; assay type: cell-based
[23] = tested on: HeLa; test: Effect on cell cycle arrest in TNF-alpha-stimulated human HeLa cells transfected with NFkappaB-Luc assessed as total background cell aggregate and debris level at 5 uM after 8 hrs by using propidium iodide staining by FACS analysis; assay type: functional
[24] = tested on: HeLa; test: Cell cycle arrest in TNF-alpha-stimulated human HeLa cells transfected with NFkappaB-Luc assessed as accumulation at diploid stage at 20 uM after 8 hrs by using propidium iodide staining by FACS analysis; assay type: functional
[25] = tested on: HeLa; test: Cell cycle arrest in TNF-alpha-stimulated human HeLa cells transfected with NFkappaB-Luc assessed as accumulation at G2/G1 phase at 10 uM after 8 hrs by using propidium iodide staining by FACS analysis; assay type: functional
[26] = tested on: HeLa; test: Effect on cell cycle arrest in TNF-alpha-stimulated human HeLa cells transfected with NFkappaB-Luc assessed as cell debris level at 1 uM after 8 hrs by using propidium iodide staining by FACS analysis; assay type: functional
[27] = tested on: HeLa; test: Cell cycle arrest in TNF-alpha-stimulated human HeLa cells transfected with NFkappaB-Luc assessed as accumulation at diploid G2 phase at 0.05 uM after 8 hrs by using propidium iodide staining by FACS analysis; assay type: functional
[28] = tested on: HeLa; test: Cell cycle arrest in TNF-alpha-stimulated human HeLa cells transfected with NFkappaB-Luc assessed as accumulation at diploid G2 phase at 5 uM after 8 hrs by using propidium iodide staining by FACS analysis; assay type: functional
[29] = tested on: HeLa; test: Effect on cell cycle arrest in TNF-alpha-stimulated human HeLa cells transfected with NFkappaB-Luc assessed as cell aggregate level at 0.5 uM after 8 hrs by using propidium iodide staining by FACS analysis; assay type: functional
[30] = tested on: HeLa; test: Effect on cell cycle arrest in TNF-alpha-stimulated human HeLa cells transfected with NFkappaB-Luc assessed as cell aggregate level at 0.05 uM after 8 hrs by using propidium iodide staining by FACS analysis; assay type: functional
[31] = tested on: HeLa; test: Cell cycle arrest in TNF-alpha-stimulated human HeLa cells transfected with NFkappaB-Luc assessed as accumulation at diploid G1 phase at 0.1 uM after 8 hrs by using propidium iodide staining by FACS analysis; assay type: functional
[32] = tested on: HeLa; test: Effect on cell cycle arrest in TNF-alpha-stimulated human HeLa cells transfected with NFkappaB-Luc assessed as total background cell aggregate and debris level at 0.05 uM after 8 hrs by using propidium iodide staining by FACS analysis; assay type: functional

Q: Which results are given for `CCOC(=O)[C@]1(c2ccccc2)N=C(c2ccccc2)N(Cc2ccccc2)[C@@H]1c1ccccc1` (racemic)?
A: Activity [1]: 21.48%; Activity [2]: 0%; Activity [3]: 100%; Activity [4]: 1.91%; Activity [5]: 68.19%; pEC50 [6]: 5.60; Activity [7]: 21.47%; Activity [8]: 2.7%; Activity [9]: 21.47%; Activity [10]: 19.8%; Activity [11]: 64.3%; Activity [12]: 22.9%; Activity [13]: 1.04 mL⁻¹; Activity [14]: 0%; Activity [15]: 15.01%; Activity [16]: 65.19%; Activity [17]: 65.96%; Activity [18]: 9.42%; Activity [19]: 13.88%; Activity [20]: 22.8%; Activity [21]: 1.9%; Activity [22]: inactive; Activity [23]: 1.14%; Activity [24]: 100%; Activity [25]: 1.91%; Activity [26]: 4.88%; Activity [27]: 12.9%; Activity [28]: 13.84%; Activity [29]: 0%; Activity [30]: 0%; Activity [31]: 64.5%; Activity [32]: 1.06%
